In patent publication US7279304B2, “Methods for preparation of macrocyclic molecules and macrocyclic molecules prepared thereby” (President and Fellows of Harvard College, priority 2000, dated 2007):
Where two headings read alike, the source gives them in different places. Where a SMILES comes first, the peptide text is derived from it. [ ]: non-standard residue; d: D form. The star is where a group is joined. ξ: configuration not given here. Butanoyl(3R-OH) = C[C@@H](O)CC(=O)*; dPhLac = O=C(O)[C@H](O)Cc1ccccc1; dOrn = NCCC[C@@H](N)C(=O)O; Hiv = CC(C)[C@H](O)C(=O)O; SCH2CH2NHAc = CC(=O)NCCS*; Orn = NCCC[C@H](N)C(=O)O; ξP = O=C(O)C1CCCN1

Experiments:
[1] = molecular target: T1, TycC TE (excised TE domain protein from the tyrocidine NRPS) (Brevibacillus parabrevis, UniProt O30409); assay type: biochemical; details: for kcat / Km: Table 1, macrocyclization of peptide-SNAC substrate, 25 mM MOPS, pH 7.0; for thioester hydrolysis by TycC TE (result in words): kinetic parameters similar to the wild-type substrate (Ex. 3); for cyclization rate compared with the substrate in Example 3: data not shown
T1 construct: excised TE domain protein from the tyrocidine NRPS (TycC TE); made in house
T1 sequence (O30409 6238-6486): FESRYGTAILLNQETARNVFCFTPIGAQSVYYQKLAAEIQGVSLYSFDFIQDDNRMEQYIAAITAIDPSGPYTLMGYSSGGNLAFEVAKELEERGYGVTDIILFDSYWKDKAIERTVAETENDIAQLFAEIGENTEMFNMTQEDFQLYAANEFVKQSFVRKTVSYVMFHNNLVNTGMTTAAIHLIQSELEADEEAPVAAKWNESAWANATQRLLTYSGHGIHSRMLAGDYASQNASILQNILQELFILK
Experimental: Macrocyclization reactions were carried out in 25 mM MOPS, pH 7.0 in a total volume of 400 μL. Reactions were initiated by addition of TycC TE and quenched at various time points by the addition of 25 μL 1.7% TFA/water, flash frozen in liquid nitrogen and stored at −80° C. (for Ex. 13, reactions were quenched by the addition of sodium phosphate, pH 5.3, to 100 mM). The reactions were then thawed, 85 μL acetonitrile added, and analyzed by analytical HPLC with monitoring at 220 nm (20% to 80% acetonitrile in 0.1% TFA/water, or in 25 mM potassium phosphate, pH 5.3 for Ex. 13, over 35 minutes, Vydac protein and peptide C18 column). Initial rates were calculated using 1 minute time points. Peptide-SNAC and reaction product concentrations were determined for all Tyr-containing peptides based on the estimated extinction coefficient ε (280 nm)=1,280 M^−1 cm^−1, which agrees with the experimentally determined ε (280 nm) of Ex. 1. For peptide-SNACs not containing Tyr, ε (220 nm) was determined experimentally, and concentrations of corresponding cyclic products determined by assuming equal ε (220 nm) values for the peptide-SNAC and cyclic product.

[2] = molecular target: T2, excised TE domain protein from the surfactin synthetase (Bacillus subtilis, UniProt Q08787); assay: Cyclization of thioester substrate to macrolactone by excised surfactin synthetase TE domain; assay type: biochemical
T2 construct: the excised TE domain protein from the surfactin synthetase protein system; made in house
T2 sequence (Q08787 1059-1271): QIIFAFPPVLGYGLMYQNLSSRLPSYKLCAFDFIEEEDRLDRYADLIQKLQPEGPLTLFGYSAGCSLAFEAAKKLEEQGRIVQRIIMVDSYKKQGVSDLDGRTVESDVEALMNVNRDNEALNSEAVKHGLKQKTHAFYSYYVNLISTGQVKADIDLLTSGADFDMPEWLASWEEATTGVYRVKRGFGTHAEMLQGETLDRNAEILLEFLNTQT
Source text: In accord with the present invention, other linear substrate molecules can be cyclized by other excised TE domain proteins besides the TE domain protein excised from the tyrocidine NRPS. […] The excised surfactin TE domain protein selectively cyclizes substrates with the (R)-hydroxybutanamide nucleophile versus substrates with the (S)-hydroxybutamide nucleophile.
The observed specificity of the surfactin TE domain supports that TE domains can cyclize a variety of substrates provided that certain key recognition elements that are generally near the parts of the molecule that are joined in the cyclization reaction are present. For example, substrate 27 contains a change in the sequence of the heptapeptide compared to the wild-type surfactin sequence (D-Leu3 is changed to D-Orn), but this substrate is nevertheless cyclized by the excised TE domain from surfactin synthetase. When the (R)-hydroxybutanamide nucleophile in compound 27 was changed to a (S)-hydroxybutanamide nucleophile (a change near the parts of the molecule joined by the cylization reaction), cyclization activity was abolished.

Compound: D-Phe-Pro-Val-Orn-Leu-D-Phe-Pro-Val-Orn-Leu-SNAC [Example 17]
- kcat [1]: 12
- Km ([1]; read-out: KM): 5 µM
- KM as compared to Ex. 3 ([1]; cyclization): comparable
- reduction in kcat relative to wild-type substrate (Ex. 3) ([1]; cyclization): 5 fold

Compound: D-Ala-Pro-Phe-D-Phe-Asn-Gln-Tyr-Val-Orn-Leu-SNAC [Example 5]
- cyclization by TycC TE domain (result in words) [1]: arrests cyclization activity
- kcat [1]: 0
- thioester hydrolysis by TycC TE (result in words) [1]: observed

Compound: CC(=O)NCCSC(=O)[C@H](CC(C)C)NC(=O)[C@H](CCCN)NC(=O)[C@@H](NC(=O)[C@H](Cc1ccc(O)cc1)NC(=O)[C@H](CCC(N)=O)NC(=O)[C@H](CC(N)=O)NC(=O)[C@@H](Cc1ccccc1)NC(=O)[C@H](Cc1ccccc1)NC(=O)C1CCCN1C(=O)[C@H](O)Cc1ccccc1)C(C)C (stereo partly drawn) [compound 24] (H-[dPhLac][ξP]F[dF]NQYV[Orn]L-SCH2CH2NHAc)
- cyclization by TycC TE domain (result in words) [1]: macrocyclized

Compound: Phe-Pro-Phe-D-Phe-Asn-Gln-Tyr-Val-Orn-Leu-SNAC [Example 4]
- cyclization by TycC TE domain (result in words) [1]: arrests cyclization activity
- kcat [1]: 0
- thioester hydrolysis by TycC TE (result in words) [1]: observed

Compound: CC(=O)NCCSC(=O)[C@H](CC(C)C)NC(=O)[C@@H](CC(C)C)NC(=O)[C@H](CC(=O)O)NC(=O)[C@@H](NC(=O)[C@@H](CCCN)NC(=O)[C@H](CC(C)C)NC(=O)[C@H](CCC(=O)O)NC(=O)C[C@@H](C)O)C(C)C [compound 27] ({Butanoyl(3R-OH)}-EL[dOrn]VD[dL]L-SCH2CH2NHAc)
- cyclization to macrolactone by excised surfactin TE domain [2]: efficiently cyclized

Compound: CC(=O)NCCSC(=O)[C@H](CC(C)C)NC(=O)[C@H](CCCN)NC(=O)[C@@H](NC(=O)[C@H](Cc1ccc(O)cc1)NC(=O)[C@H](CCC(N)=O)NC(=O)[C@H](CC(N)=O)NC(=O)[C@@H](Cc1ccccc1)NC(=O)[C@H](Cc1ccccc1)NC(=O)[C@@H]1CCCN1C(=O)[C@H](N)Cc1ccccc1)C(C)C [Example 3, D-Phe-Pro-Phe-D-Phe-Asn-Gln-Tyr-Val-Orn-Leu-SNAC] (H-[dF]PF[dF]NQYV[Orn]L-SCH2CH2NHAc)
- Km [1]: 3 µM

Compound: D-Phe-Pro-Val-Orn-Leu-SNAC [pentapeptide-SNAC]
- chain dimerization and subsequent cyclization to gramicidin S ([1]; incubation of pentapeptide-SNAC with TycC TE): efficient chain dimerization and subsequent cyclization occurred

Compound: CC(=O)NCCSC(=O)[C@H](CC(C)C)NC(=O)[C@H](CCCN)NC(=O)[C@@H](OC(=O)[C@H](Cc1ccc(O)cc1)NC(=O)[C@H](CCC(N)=O)NC(=O)[C@H](CC(N)=O)NC(=O)[C@@H](Cc1ccccc1)NC(=O)[C@H](Cc1ccccc1)NC(=O)C1CCCN1C(=O)[C@H](N)Cc1ccccc1)C(C)C (stereo partly drawn) [compound 23] (H-[dF][ξP]F[dF]NQY[Hiv][Orn]L-SCH2CH2NHAc)
- cyclization rate compared with the substrate in Example 3 [1]: similar

Compound: CC(=O)NCCSC(=O)[C@H](CC(C)C)NC(=O)[C@H](CCCN)NC(=O)[C@@H](NC(=O)[C@H](Cc1ccc(O)cc1)NC(=O)[C@H](CCC(N)=O)NC(=O)[C@H](CC(N)=O)NC(=O)[C@@H](Cc1ccccc1)OC(=O)[C@H](Cc1ccccc1)NC(=O)C1CCCN1C(=O)[C@H](N)Cc1ccccc1)C(C)C (stereo partly drawn) [compound 22] (H-[dF][ξP]F[dPhLac]NQYV[Orn]L-SCH2CH2NHAc)
- cyclization rate compared with the substrate in Example 3 [1]: similar
